Structures are written as SMILES. Numbers after ± are expanded uncertainties.

This passage reports activity coefficient results from the NIST ThermoML archive (doi:10.1021/je500050p).

The series is described as follows: activity coefficient (dimensionless); of the first substance listed, at infinite dilution; xn = mol fraction of the nth substance listed. Particulars: 101 kPa, Liquid, Chromatography, x1 = 0.

Turning to `c1ccccc1` [benzene] + CCCCCCCCCCCCCC[N+](CCCCCC)(CCCCCC)CCCCCC.C[C@H](O)C(=O)[O-], the activity coefficient runs as follows: (323.15 K) 0.38 ± 0.03; (353.15 K) 0.38 ± 0.03; (373.15 K) 0.39 ± 0.03.
For `CCCCCCCCCCC` [undecane] + CCCCCCCCCCCCCC[N+](CCCCCC)(CCCCCC)CCCCCC.C[C@H](O)C(=O)[O-], the activity coefficient (323.15 K) stood at 1.67 ± 0.11, the activity coefficient (353.15 K) came to 1.81 ± 0.12 and the activity coefficient (373.15 K) was determined as 1.75 ± 0.12.
As for `c1ccccc1` [benzene] + CC1(C)[C@@H]2CC[C@@]1(CS(=O)(=O)[O-])C(=O)C2.CCCCCCCCCCCCCC[N+](CCCCCC)(CCCCCC)CCCCCC, the activity coefficient reads like this: (323.15 K) 0.36 ± 0.03; (333.15 K) 0.51 ± 0.04; (343.15 K) 0.69 ± 0.05.
Taken in the same sequence, the figures for `CC1CCCC1` [methylcyclopentane] + CC1(C)[C@@H]2CC[C@@]1(CS(=O)(=O)[O-])C(=O)C2.CCCCCCCCCCCCCC[N+](CCCCCC)(CCCCCC)CCCCCC were 0.75 ± 0.05, 1 and 1.33 ± 0.09.
The matching figures for `CCCO` [propan-1-ol] + CC1(C)[C@@H]2CC[C@@]1(CS(=O)(=O)[O-])C(=O)C2.CCCCCCCCCCCCCC[N+](CCCCCC)(CCCCCC)CCCCCC: 0.09 ± 0.03, 0.16 ± 0.03 and 0.26 ± 0.03.
The matching figures for `CC(C)OC(C)C` [diisopropyl ether] + CC1(C)[C@@H]2CC[C@@]1(CS(=O)(=O)[O-])C(=O)C2.CCCCCCCCCCCCCC[N+](CCCCCC)(CCCCCC)CCCCCC: 1, 1.39 ± 0.09 and 1.77 ± 0.12.
`CCN(CC)CC` [triethylamine] + CC1(C)[C@@H]2CC[C@@]1(CS(=O)(=O)[O-])C(=O)C2.CCCCCCCCCCCCCC[N+](CCCCCC)(CCCCCC)CCCCCC: the activity coefficient by setting is: (323.15 K) 0.84 ± 0.05; (333.15 K) 1.23 ± 0.08; (343.15 K) 1.55 ± 0.1.
Taken in the same sequence, the figures for `CCCCCCCCCC` [decane] + CC1(C)[C@@H]2CC[C@@]1(CS(=O)(=O)[O-])C(=O)C2.CCCCCCCCCCCCCC[N+](CCCCCC)(CCCCCC)CCCCCC were 1.52 ± 0.1, 2.41 ± 0.16 and 3.63 ± 0.25.
On to `C1COCCO1` [1,4-dioxane] + CC1(C)[C@@H]2CC[C@@]1(CS(=O)(=O)[O-])C(=O)C2.CCCCCCCCCCCCCC[N+](CCCCCC)(CCCCCC)CCCCCC, for which the activity coefficient is, setting by setting: (323.15 K) 0.52 ± 0.04; (333.15 K) 0.74 ± 0.05; (343.15 K) 1.
Taken in the same sequence, the figures for `CC1CCCCC1` [methylcyclohexane] + CC1(C)[C@@H]2CC[C@@]1(CS(=O)(=O)[O-])C(=O)C2.CCCCCCCCCCCCCC[N+](CCCCCC)(CCCCCC)CCCCCC were 0.75 ± 0.05, 1 and 1.33 ± 0.09.
The matching figures for `CC#N` [acetonitrile] + CC1(C)[C@@H]2CC[C@@]1(CS(=O)(=O)[O-])C(=O)C2.CCCCCCCCCCCCCC[N+](CCCCCC)(CCCCCC)CCCCCC: 0.46 ± 0.04, 0.66 ± 0.05 and 0.89 ± 0.06.
Taken in the same sequence, the figures for `CCCC(C)=O` [pentan-2-one] + CC1(C)[C@@H]2CC[C@@]1(CS(=O)(=O)[O-])C(=O)C2.CCCCCCCCCCCCCC[N+](CCCCCC)(CCCCCC)CCCCCC were 0.52 ± 0.04, 0.78 ± 0.05 and 1.07 ± 0.07.
Regarding `CCC(C)=O` [butanone] + CC1(C)[C@@H]2CC[C@@]1(CS(=O)(=O)[O-])C(=O)C2.CCCCCCCCCCCCCC[N+](CCCCCC)(CCCCCC)CCCCCC, the activity coefficient by setting is: (323.15 K) 0.43 ± 0.04; (333.15 K) 0.57 ± 0.04; (343.15 K) 0.73 ± 0.05.
As to `C[N+](=O)[O-]` [nitromethane] + CCCCCCCCCCCCCC[N+](CCCCCC)(CCCCCC)CCCCCC.C[C@H](O)C(=O)[O-], the activity coefficient (323.15 K) came to 0.32 ± 0.03, the activity coefficient (353.15 K) worked out at 0.31 ± 0.03 and the activity coefficient (373.15 K) stood at 0.31 ± 0.03.
For the compound `ClC(Cl)Cl` [trichloromethane] + CCCCCCCCCCCCCC[N+](CCCCCC)(CCCCCC)CCCCCC.C[C@H](O)C(=O)[O-], the activity coefficient (323.15 K) was 0.05, the activity coefficient (353.15 K) was found to be 0.04 and the activity coefficient (373.15 K) is 0.03.
Consider `CCCCCCCCCCCC` [dodecane] + CC1(C)[C@@H]2CC[C@@]1(CS(=O)(=O)[O-])C(=O)C2.CCCCCCCCCCCCCC[N+](CCCCCC)(CCCCCC)CCCCCC, for which the activity coefficient was determined as 1.72 ± 0.12 (323.15 K), 3.15 ± 0.22 (333.15 K) and 5.14 ± 0.35 (343.15 K).
Taken in the same sequence, the figures for `c1ccsc1` [thiophene] + CC1(C)[C@@H]2CC[C@@]1(CS(=O)(=O)[O-])C(=O)C2.CCCCCCCCCCCCCC[N+](CCCCCC)(CCCCCC)CCCCCC were 0.28 ± 0.03, 0.42 ± 0.04 and 0.56 ± 0.04.
As to `CCC(=O)CC` [pentan-3-one] + CC1(C)[C@@H]2CC[C@@]1(CS(=O)(=O)[O-])C(=O)C2.CCCCCCCCCCCCCC[N+](CCCCCC)(CCCCCC)CCCCCC, the activity coefficient runs as follows: (323.15 K) 0.47 ± 0.04; (333.15 K) 0.71 ± 0.05; (343.15 K) 1.03 ± 0.06.
Taken in the same sequence, the figures for `CO` [methanol] + CC1(C)[C@@H]2CC[C@@]1(CS(=O)(=O)[O-])C(=O)C2.CCCCCCCCCCCCCC[N+](CCCCCC)(CCCCCC)CCCCCC were 0.08 ± 0.03, 0.13 ± 0.03 and 0.2.
`ClCCl` [dichloromethane] + CCCCCCCCCCCCCC[N+](CCCCCC)(CCCCCC)CCCCCC.C[C@H](O)C(=O)[O-]: the activity coefficient reads like this: (323.15 K) 0.06; (353.15 K) 0.08 ± 0.03; (373.15 K) 0.1.
Taken in the same sequence, the figures for `CCC(=O)CC` [pentan-3-one] + CCCCCCCCCCCCCC[N+](CCCCCC)(CCCCCC)CCCCCC.C[C@H](O)C(=O)[O-] were 0.55 ± 0.04, 0.55 ± 0.04 and 0.57 ± 0.04.
As to `C[N+](=O)[O-]` [nitromethane] + CC1(C)[C@@H]2CC[C@@]1(CS(=O)(=O)[O-])C(=O)C2.CCCCCCCCCCCCCC[N+](CCCCCC)(CCCCCC)CCCCCC, the activity coefficient runs as follows: (323.15 K) 0.34 ± 0.03; (333.15 K) 0.5 ± 0.1; (343.15 K) 0.7 ± 0.1.
For the compound `c1ccsc1` [thiophene] + CCCCCCCCCCCCCC[N+](CCCCCC)(CCCCCC)CCCCCC.C[C@H](O)C(=O)[O-], the activity coefficient was determined as 0.28 ± 0.03 (323.15 K), 0.29 ± 0.03 (353.15 K) and 0.3 ± 0.1 (373.15 K).
The matching figures for `Cc1ccc(C)cc1` [1,4-dimethylbenzene] + CCCCCCCCCCCCCC[N+](CCCCCC)(CCCCCC)CCCCCC.C[C@H](O)C(=O)[O-]: 0.58 ± 0.04, 0.58 ± 0.04 and 0.58 ± 0.04.
`c1ccncc1` [pyridine] + CC1(C)[C@@H]2CC[C@@]1(CS(=O)(=O)[O-])C(=O)C2.CCCCCCCCCCCCCC[N+](CCCCCC)(CCCCCC)CCCCCC: the activity coefficient reads like this: (323.15 K) 0.32 ± 0.03; (333.15 K) 0.49 ± 0.04; (343.15 K) 0.68 ± 0.05.
Taken in the same sequence, the figures for `Cc1ccccc1` [toluene] + CC1(C)[C@@H]2CC[C@@]1(CS(=O)(=O)[O-])C(=O)C2.CCCCCCCCCCCCCC[N+](CCCCCC)(CCCCCC)CCCCCC were 0.41 ± 0.03, 0.63 ± 0.04 and 0.88 ± 0.06.
For the compound `Cc1cccc(C)c1` [1,3-dimethylbenzene] + CCCCCCCCCCCCCC[N+](CCCCCC)(CCCCCC)CCCCCC.C[C@H](O)C(=O)[O-], the activity coefficient worked out at 0.57 ± 0.04 (323.15 K), 0.59 ± 0.04 (353.15 K) and 0.6 ± 0.1 (373.15 K).
For the compound `Cc1cccc(C)c1` [1,3-dimethylbenzene] + CC1(C)[C@@H]2CC[C@@]1(CS(=O)(=O)[O-])C(=O)C2.CCCCCCCCCCCCCC[N+](CCCCCC)(CCCCCC)CCCCCC, the activity coefficient reads like this: (323.15 K) 0.52 ± 0.04; (333.15 K) 0.81 ± 0.05; (343.15 K) 1.16 ± 0.07.
With `CCCCCCCCCC` [decane] + CCCCCCCCCCCCCC[N+](CCCCCC)(CCCCCC)CCCCCC.C[C@H](O)C(=O)[O-], the activity coefficient was determined as 1.67 ± 0.11 (323.15 K), 1.63 ± 0.11 (353.15 K) and 1.59 ± 0.11 (373.15 K).
In the case of `CC(C)CO` [2-methyl-1-propanol] + CC1(C)[C@@H]2CC[C@@]1(CS(=O)(=O)[O-])C(=O)C2.CCCCCCCCCCCCCC[N+](CCCCCC)(CCCCCC)CCCCCC, the activity coefficient (323.15 K) stood at 0.08 ± 0.03, the activity coefficient (333.15 K) came to 0.15 ± 0.03 and the activity coefficient (343.15 K) turned out to be 0.24 ± 0.03.
Take `CCCCCC` [hexane] + CCCCCCCCCCCCCC[N+](CCCCCC)(CCCCCC)CCCCCC.C[C@H](O)C(=O)[O-]: the activity coefficient is 1.11 ± 0.07 (323.15 K), 1.06 ± 0.07 (353.15 K) and 1.06 ± 0.07 (373.15 K).
For the compound `ClC(Cl)(Cl)Cl` [tetrachloromethane] + CCCCCCCCCCCCCC[N+](CCCCCC)(CCCCCC)CCCCCC.C[C@H](O)C(=O)[O-], the activity coefficient reads like this: (323.15 K) 0.24 ± 0.03; (353.15 K) 0.26 ± 0.03; (373.15 K) 0.29 ± 0.03.
The matching figures for `CCc1ccccc1` [ethylbenzene] + CCCCCCCCCCCCCC[N+](CCCCCC)(CCCCCC)CCCCCC.C[C@H](O)C(=O)[O-]: 0.56 ± 0.04, 0.56 ± 0.04 and 0.57 ± 0.04.
The matching figures for `CCO` [ethanol] + CCCCCCCCCCCCCC[N+](CCCCCC)(CCCCCC)CCCCCC.C[C@H](O)C(=O)[O-]: 0.03, 0.03 and 0.04.
With `C=CCCCC` [hex-1-ene] + CCCCCCCCCCCCCC[N+](CCCCCC)(CCCCCC)CCCCCC.C[C@H](O)C(=O)[O-], the activity coefficient (323.15 K) came out at 0.93 ± 0.06, the activity coefficient (353.15 K) worked out at 0.95 ± 0.06 and the activity coefficient (373.15 K) worked out at 0.97 ± 0.06.
